# Test results from ChEMBL document CHEMBL1126187, “New bronchodilators. 3. Imidazo[4,5-c][1,8]naphthyridin-4(5H)-ones” (J Med Chem, 1992).
# How the values were obtained:
# [1] = species on record: Cavia porcellus; assay: Schultz-Dale (SD) reaction in tracheal strip isolated from passively sensitized guinea pigs; type: functional
# [2] = system: Cavia porcellus; assay: Mean collapse time in antigen induced bronchospasm in passively sensitized guinea pigs at 0.1 mg/kg peroral dose; type: functional; conditions: route oral
# [3] = system: Cavia porcellus; assay: Mean collapse time in antigen induced bronchospasm in passively sensitized guinea pigs at 0.50 mg/kg peroral dose; type: functional; conditions: dose 0.5 mg/kg; route oral
# [4] = system: Cavia porcellus; assay: Mean collapse time in antigen induced bronchospasm in passively sensitized guinea pigs at 1 mg/kg peroral dose; type: functional; conditions: route oral
# [5] = system: Cavia porcellus; assay: Mean collapse time in antigen induced bronchospasm in passively sensitized guinea pigs at 50 mg/kg peroral dose; type: functional; conditions: route oral
# [6] = system: Cavia porcellus; assay: Mean collapse time in antigen induced bronchospasm in passively sensitized guinea pigs at 5 mg/kg peroral dose; type: functional; conditions: route oral
# [7] = system: Cavia porcellus; assay: Mean collapse time in antigen induced bronchospasm in passively sensitized guinea pigs at 10 mg/kg peroral dose; type: functional; conditions: route oral
# [8] = species on record: Cavia porcellus; assay: Effect on LTD4 induced contraction of guinea pig tracheal strips; type: functional; conditions: Trachea
# [9] = species on record: Cavia porcellus; assay: Effect on carbachol induced contraction of guinea pig tracheal strips; type: functional; conditions: Trachea
# [10] = species on record: Cavia porcellus; assay: Effect on histamine induced contraction of guinea pig tracheal strips; type: functional; conditions: Trachea
# [11] = system: Mus musculus; assay: Acute lethal toxicity in mice on peroral administration.; type: organism-based; conditions: in vivo, po
# [12] = target: Phosphodiesterase 4 (Canis familiaris); assay: Inhibition of Canine Tracheal Smooth Muscle PDE 4
# [13] = system: Cavia porcellus; assay: Mean collapse time in antigen induced bronchospasm in passively sensitized guinea pigs at 25 mg/kg peroral dose; type: functional; conditions: route oral
# [14] = target: Phosphodiesterase 4 (Canis familiaris); assay: Inhibition of Canine Tracheal Smooth Muscle PDE 4; remark: listed apart in the source
smiles,measurement,setting,value
CCCCCCn1cnc2c3cccnc3n(-c3ccccc3)c(=O)c21,IC50,[1],> 30 µM
COc1cccc(-n2c(O)c3ncnc-3c3cccnc32)c1,IC50,[1],> 30 µM
CCN(CC)CCCn1cnc2c3cccnc3n(-c3ccccc3)c(=O)c21,IC50,[1],> 30 µM
O=c1c2c(ncn2CCCN2CCOCC2)c2cccnc2n1-c1ccccc1,IC50,[1],> 30 µM
Oc1c2ncnc-2c2cccnc2n1-c1ccccc1,MCT,[2],301 s
same,MCT,[3],410 s
same,MCT,[4],397 s
same,MCT,[5],491 s
same,MCT,[6],483 s
same,MCT,[7],457 s
same,IC50,[1],2.18 µM
same,IC50,[8],3.04 µM
same,IC50,[9],10.2 µM
same,IC50,[10],5.72 µM
same,MLD,[11],> 300 mg/kg
same,IC50,[12],12 µM
Cn1cnc2c(=O)n(-c3ccccc3)c3ncccc3c21,IC50,[1],> 30 µM
Oc1c2ncnc-2c2cccnc2n1-c1cccc(Cl)c1,IC50,[1],> 30 µM
CCOC(=O)c1ccc(-n2c(O)c3ncnc-3c3cccnc32)cc1,IC50,[1],> 30 µM
Cc1nc2c(O)n(-c3ccccc3)c3ncccc3c-2n1,IC50,[1],> 30 µM
CCCCn1cnc2c3cccnc3n(-c3ccccc3)c(=O)c21,IC50,[1],> 30 µM
COc1ccc(-n2c(O)c3ncnc-3c3cccnc32)cc1,IC50,[1],> 30 µM
Cn1c(=O)c2nc[nH]c2n(C)c1=O.O [THEOPHYLLINE],MCT,[13],389 s
same,MCT,[5],414 s
same,MCT,[7],343 s
Oc1c2nnnc-2c2cccnc2n1-c1ccccc1,IC50,[1],> 30 µM
CCCCn1c(=O)c2ncn(C)c2c2cccnc21,MCT,[7],335 s
same,IC50,[1],13 µM
same,MLD,[11],300 mg/kg
O=C(O)Cn1cnc2c3cccnc3n(-c3ccccc3)c(=O)c21,IC50,[1],> 30 µM
CCCCn1c(O)c2ncnc-2c2cccnc21,IC50,[1],> 30 µM
Oc1c2nc(-c3ccccc3)nc-2c2cccnc2n1-c1ccccc1,IC50,[1],> 30 µM
CC(C)n1cnc2c3cccnc3n(-c3ccccc3)c(=O)c21,IC50,[1],4.98 µM
same,MLD,[11],200 mg/kg
same,IC50,[14],2.5 µM
Cn1cnc2c3cccnc3n(-c3ccccc3)c(=O)c21,MCT,[7],543 s
same,IC50,[1],0.22 µM
same,MLD,[11],100 mg/kg
same,IC50,[14],6.6 µM
COc1ccc(C2CNC(=O)C2)cc1OC1CCCC1 (stereo not given) [ROLIPRAM],IC50,[1],0.34 µM
CCOC(=O)c1cccc(-n2c(O)c3ncnc-3c3cccnc32)c1,IC50,[1],> 30 µM
CCCn1cnc2c3cccnc3n(-c3ccccc3)c(=O)c21,MCT,[7],505 s
same,IC50,[1],8.3 µM
same,MLD,[11],200 mg/kg
same,IC50,[14],0.52 µM
CCCCn1c(=O)c2c(ncn2C)c2cccnc21,MCT,[7],215 s
same,IC50,[1],3.57 µM
same,MLD,[11],200 mg/kg
same,IC50,[14],3.6 µM
CC(C)Cn1cnc2c3cccnc3n(-c3ccccc3)c(=O)c21,MCT,[7],551 s
same,IC50,[1],6.78 µM
same,MLD,[11],300 mg/kg
same,IC50,[14],0.15 µM
Cc1ccc(-n2c(O)c3ncnc-3c3cccnc32)cc1,IC50,[1],> 30 µM
CC(C)n1cnc2c(=O)n(-c3ccccc3)c3ncccc3c21,IC50,[1],> 30 µM
CCn1cnc2c3cccnc3n(-c3ccccc3)c(=O)c21,IC50,[1],0.47 µM
same,MLD,[11],100 mg/kg
same,IC50,[14],2 µM
Oc1c2ncnc-2c2ccccc2n1-c1ccccc1,IC50,[1],> 30 µM
Cc1cccc(-n2c(O)c3ncnc-3c3cccnc32)c1,IC50,[1],> 30 µM
